# From patent US8772250B2, “Compositions and methods for treating ischemia and ischemia-reperfusion injury” (Ischemix, LLC, priority 2010, dated 2014)
# Peptide text beside a SMILES is read from it.
# What was measured:
# Akt [1] = assay: Immunohistochemistry assay for phosphorylated Akt in H9c2 cells; format: cell-based, rat; details: co-treatment with LY294002 (25 μM), 30 minutes prior to RLip-EA-OH
# Procedure: The ability of RLip-EA-OH to increase phosphorylated Akt was assayed in H9c2 cells by immunocytochemistry followed by visualization using microscopy. H9c2 cells are a cell line derived from rat cardiac myocytes and can be manipulated to increase or decrease the level of phosphoryated Akt. Cells were inoculated onto culture plates and allowed to adhere to the bottom, treated, fixed, and permeabilized. Following permeabilization, cells were treated initially with specific phospho-Akt antibodies followed by fluorescent secondary antibodies to quantify the amount of bound primary antibody.
# H9c2 cells were plated in 12 well cell culture treated plates at 70% confluence. Cells were incubated overnight to allow cell attachment. The media was changed to low serum (0.5%, fetal bovine serum [FBS]) and cells incubated for another 48 hours. Cells were treated for 3 hours with either vehicle, RLip-EA-OH (50 μM), or co-treatment with LY294002 (25 μM), fixed with 3.7% formaldehyde in phosphate buffered saline and permeabilized with 0.5% Triton X-100 in phosphate buffered saline. After permeabilization, the cells were treated with antibody specific for Akt phosphorylated at threonine-308, followed by treatment with a fluorescent labeled secondary antibody.
# Akt [2] = assay: Cytoblot assay for Akt activation in A549 cells; format: cell-based, human
# Procedure: The ability of RLip-EA-OH to increase phosphorylated Akt was assayed using an in-cell western blot, or cytoblot. A549 cells (human non-small cell lung cancer cell line) were selected because these cells can be manipulated to increase or decrease the level of phosphoryated Akt. The cells were inoculated onto culture plates and allowed to adhere to the bottom, then treated, fixed, and permeabilized. Following permeabilization, the cells were treated with antibodies specific for either phospho-Akt or total Akt. The cells were then treated with fluorescent secondary antibodies to quantify the amount of bound primary antibody. Total Akt and phospho-Akt were simultaneously detected.
# A549 cells were plated in 384 well black-wall, clear-bottom, cell culture-treated microtiter plates at 70% confluence. Cells were incubated overnight to allow cell attachment. The media was changed to low serum (0.1%, fetal bovine serum [FBS]) and the cells were incubated for another 24 hours. Cells were treated with test compounds, fixed and permeabilized for the Akt assay. The fixative was 3.7% formaldehyde in phosphate buffered saline. The permeabilization buffer was 0.5% Triton X-100 in phosphate buffered saline. After permeabilization of cells, the amounts of total Akt and phosphorylated Akt at either of the two phosphorylation sites (threonine-308 and serine-473) were determined at 7 test concentrations, each performed in quadruplicate. The phospho-Akt data were normalized to total Akt and background subtracted for analysis.
# Following overnight serum starvation to reduce basal Akt phosphorylation, cells were stimulated with vehicle, RLip-EA-OH, or RLip-OH. Cells were treated for 45 minutes or 3 hours and studied for phosphorylation at serine-473 or threonine 308, respectively.
# [3] = Oxygen Radical Absorbance Capacity (ORAC) assay
# Text: Peroxyl radicals are one species of reactive oxygen produced by cells during reperfusion. The presence of peroxyl radicals can be detected by fluorescein oxidation. In the presence of peroxyl radicals, fluorescein fluorescence will decay over time. In the presence of an oxygen radical scavenger, the rate of decay is diminished. The change in the rate of decay between control and in the presence of scavengers is used to measure the peroxyl radical scavenging ability of a test compound.
# Each compound tested was diluted to a concentration ranging from 25 μM to 250 μM in 10 mM phosphate buffer (pH=7.4) containing 10 nM fluorescein. The buffer and compound were incubated at 37° C. for 10 minutes. After the incubation, flourescein fluorescence was measured using a plate reader (Molecular Devices Flexstation II, Ex=485, Em=520). Baseline fluorescence measurements were recorded for 15 minutes before 2,2′-azobis(2-methylpropionamidine) dihydrochloride (AAPH) was added. The fluorescence decay was recorded for 90 minutes. The fluorescence decay without compound was subtracted from the fluorescence decay with compound. The slope of the decay vs. concentration is reported as the absorbance capacity.
# CHO M1-WT3 cells = assay: Cytosolic calcium overload assay, carbachol stimulated; format: cell-based, Chinese hamster; details: 200 nM carbachol, variant concentrations
# Text: Cytosolic calcium increases in the CHO M1-WT3 cells when stimulated with carbachol ([Molecular Devices, FlexStation Application Note 2, Comparison of FLIPR® and FLEXstation™ for Calcium Mobilization Assays]) and may be detected with a fluorescent dye that binds calcium. An increase in fluorescence following carbachol stimulation is interpreted as an increase in cytosolic calcium. Chinese hamster ovary (CHO) cells were allowed to adhere to the bottom of a 96-well culture plate. The fluorescent dye and a test sample were placed on the plate and allowed to be taken up by the cells. The fluorescence level was measured every two seconds using a plate reader (Flexstation II, Molecular Devices, Sunnyvale Calif.). The cells were stimulated with carbachol and fluorescent data reported as the peak increase in fluorescence above baseline following carbachol stimulation. Data were normalized to the peak carbachol response in the control sample.
# CHO cells from the cell line CHO-M1-WT3 were grown in Hams F12 medium supplemented with 10% FBS and 5 μg/mL G418 to maintain expression of the M1 muscarinic receptor. Cells were seeded the night before the experiment at a concentration of 30,000 cells/well in a volume of 100 μL per well of black walled, clear bottomed, 96-well microplates (“assay plates”). Cells were incubated at 37° C. and 5% CO2 overnight. […] The cells were placed into the FlexStation system to monitor fluorescence before and after the addition of 50 μL of 1 μM carbachol for a final concentration of 200 nM. Fluorescence was measured for 17 seconds prior to carbachol addition and 43 seconds following carbachol addition. The Fluo-4 dye was excited at a wavelength of 485 nm and emission measured at 525 nm. The Calcium-3 dye was excited at a wavelength of 494 nm and emission measured at 525 nm. The calcium response was reported as the peak fluorescence minus the baseline fluorescence calculated as the average of the fluorescence prior to carbachol addition.
# [4] = system: myocardial ischemia-reperfusion injury; assay: Rat model of myocardial I/R injury (MI/AR ratio); format: in vivo; details: rat
# Src = Src (Homo sapiens, UniProt P12931); assay: Src tyrosine kinase activation assay (mobility shift); format: biochemical
# Text: (§1) IGF1R and Src tyrosine kinases have endogenous levels of activity in the presence of ATP and substrate. This activity was readily measured using a mobility shift assay using a Caliper LabChip® 3000 and a 12-sipper LabChip® to detect both phosphorylated and unphosphorylated substrate (Caliper Life Sciences, Discovery Alliances and Services Division). Enzyme, substrate and ATP concentrations were optimized for each assay. For the IGF1R assay, the final concentrations of the enzyme, peptide and ATP were 20 nM, 1.5 μM, and 1220 μM, respectively. For the Src assay, the final concentrations of the enzyme, peptide and ATP were 2.5 nM, 1.5 μM, and 17 μM, respectively.
# (§2) RLip-EA-OH was evaluated at multiple concentrations for an effect on activation of IGF1 receptor kinase (IGF1R) and Src. The compounds tested activated IGF1R and Src with different selectivities.
# IGF1R = IGF1R (Homo sapiens, UniProt P08069); assay: IGF1R tyrosine kinase activation assay (mobility shift); format: biochemical
# Text: as §1, §2
# insulin receptor kinase = biological target: T1, insulin receptor kinase (Homo sapiens, UniProt P06213); assay: IRK activation assay (mobility shift kinase assay); format: biochemical
# T1 construct: insulin receptor kinase domain (Millipore catalog #14-466, 80 nM); purchased Millipore 14-466
# Text: Insulin receptor kinase activity was readily measured by a mobility shift assay using a Caliper LabChip® 3000 and a 12-sipper LabChip® to detect both phosphorylated and unphosphorylated substrate (Caliper Life Sciences, Discovery Alliances and Services Division, Hanover, Md.). The mobility-shift kinase assay uses a micro fluidic chip to measure the conversion of a fluorescent peptide substrate to a phosphorylated product. The reaction mixture from a microtiter plate well was introduced through a capillary sipper onto the chip and the nonphosphorylated substrate and phosphorylated product were separated by electrophoresis and detected via laser-induced fluorescence. […] The catalytic subunits of tyrosine kinases have endogenous levels of activity in the presence of ATP and substrate, thus the results are presented as a % of control.
# Specifically, each test compound was diluted to 25 times its assay concentration with 100% DMSO and added to 12 μL of an assay buffer solution (100 mM HEPES, 10 mM MnCl2, 5 mM B-GP, and 0.002% Brij) containing dithiotheritol (DTT, 2 mM) and insulin receptor kinase domain (Millipore catalog #14-466, 80 nM) prior to pre-incubation at room temperature for 15 minutes. […] The samples were placed on the LabChip 3000 to measure the amount of parent substrate and phosphorylated product. […]
# [5] = system: myocardial ischemia-reperfusion injury; assay: Rat model of myocardial I/R injury (MI/AR ratio); format: in vivo; details: rat model of myocardial I/R injury; data not shown
# Text: A rat model of myocardial I/R injury was used as an in vivo screen to determine if certain lipoic acid derivative compounds are cardio-protective (e.g., against mycoardial ischemia-reperfusion injury). This model is analogous to the ischemia-reperfusion injury observed in cardiac patients following coronary occlusions and cardiac surgery procedures, such as coronary artery bypass grafting (CABG) (Matsui, T., Tao, J., del Monte, F., Lee, K.-H. et al., Akt Activation Preserves Cardiac Function and Prevents Injury After Transient Cardiac Ischemia In vivo, Circulation 2001, 104:330).
# The circumflex branch of the left coronary artery was ligated temporarily to induce regional ischemia in the left ventricular mass, followed by the injection of fluorescent microspheres to delineate the ischemic region. The animals were sacrificed about 24 hours after reperfusion and the hearts were excised, sectioned and stained with triphenyltetrazolium. The direct impact of the pharmacologic intervention was determined by measuring the myocardial infarct area (MI), the ischemic area at risk (AR) and the left ventricular area (LV). The reduction of MI over the AR (MI/AR ratio) was used as the primary measure of drug efficacy relative to vehicle controls.
# Male Sprague-Dawley rats between 300 and 350 gm were used for these experiments. Anesthesia was induced with 3-4% isoflurane in an induction chamber. After induction, anesthesia was maintained at a surgical plane with 1.5-2.0% isoflurane, administered by a Rodent Ventilator through a 16-gauge angiocatheter introduced orally into the trachea. The ventilator was set at 2.5 cc at a rate of 60-65 breaths per minute to maintain ventilation during surgery. The core temperature of the animal was monitored and maintained at 37° C. using a rectal probe and a heating lamp attached to a temperature controller.
# A left anterior thoracotomy was performed and the heart was exposed using a vertical pericardotomy. The circumflex branch of the left coronary artery (LCx) was ligated approximately 4 mm from the aorta using a cardiovascular 7.0 monofilament suture on an 11 mm needle to induce ischemia in the left ventricle.
# Fluorescent microspheres (300 μL) were injected into the left ventricular cavity 10-20 minutes after the ligation to delineate the ischemic area. The suture was removed 30 minutes after ligation to reperfuse the ischemic area and the ischemic area was checked for reperfusion.
# The chest was then closed in layers using absorbable suture (Dexon 5-0) for the muscle layers and monofilament Nylon 5-0 suture was used to close the cutaneous layer. The animals were allowed to recover, then were returned to the colony.
# Twenty-four hours after reperfusion, anesthesia was induced using ketamine hydrochloride and the chest was opened. The animals were sacrificed with 15% potassium chloride aqueous solution (w/v) injected into the LV cavity to arrest the heart in diastole. The heart was excised distal to the aortic valve and washed with saline to remove the blood. Sagittal slices of the heart were obtained between the base of the ventricle and the apex. Five slices of heart tissue were obtained, each 2 mm thick. The slices were immersed in a 1% 2,3,5-triphenyl-2H-tetrazolium chloride (TTC) in saline solution and then stored in the dark for 30 minutes to stain.
# Images of the slices were obtained under bright field (to observe the TTC staining) and under fluorescence (to observe the microspheres). The area at risk was determined by the absence of microspheres and the infarct area was determined by the absence of TTC staining.
# In vivo experiments employing a rat model of myocardial I/R injury were performed as described in Example 8. Catheterized (jugular vein) rats were used for intravenous dose administration at time points prior to and/or including 0.25 h.
# T1 sequence (P06213 1023-1298 limits assumed): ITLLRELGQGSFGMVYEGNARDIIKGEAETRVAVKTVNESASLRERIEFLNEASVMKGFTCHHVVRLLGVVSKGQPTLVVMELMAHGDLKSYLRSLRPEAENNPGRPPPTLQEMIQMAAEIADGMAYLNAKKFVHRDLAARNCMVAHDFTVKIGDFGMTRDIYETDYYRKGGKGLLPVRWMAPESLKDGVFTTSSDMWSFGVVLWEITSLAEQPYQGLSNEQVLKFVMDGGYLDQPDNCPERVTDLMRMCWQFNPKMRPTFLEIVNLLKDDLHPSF
# Sequence of IGF1R (P08069 959-1367 limits assumed, species assumed): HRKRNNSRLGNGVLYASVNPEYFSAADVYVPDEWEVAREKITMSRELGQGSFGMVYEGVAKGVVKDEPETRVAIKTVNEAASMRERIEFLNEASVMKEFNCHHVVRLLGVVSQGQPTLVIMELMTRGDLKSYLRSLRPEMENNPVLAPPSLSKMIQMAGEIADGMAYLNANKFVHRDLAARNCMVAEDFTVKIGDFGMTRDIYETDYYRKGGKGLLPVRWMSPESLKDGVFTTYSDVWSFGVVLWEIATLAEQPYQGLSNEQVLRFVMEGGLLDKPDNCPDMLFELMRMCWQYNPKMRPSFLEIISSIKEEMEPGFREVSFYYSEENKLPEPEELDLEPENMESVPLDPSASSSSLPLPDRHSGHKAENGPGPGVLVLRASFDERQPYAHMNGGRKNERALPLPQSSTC
# Sequence of Src (P12931 whole entry, species assumed): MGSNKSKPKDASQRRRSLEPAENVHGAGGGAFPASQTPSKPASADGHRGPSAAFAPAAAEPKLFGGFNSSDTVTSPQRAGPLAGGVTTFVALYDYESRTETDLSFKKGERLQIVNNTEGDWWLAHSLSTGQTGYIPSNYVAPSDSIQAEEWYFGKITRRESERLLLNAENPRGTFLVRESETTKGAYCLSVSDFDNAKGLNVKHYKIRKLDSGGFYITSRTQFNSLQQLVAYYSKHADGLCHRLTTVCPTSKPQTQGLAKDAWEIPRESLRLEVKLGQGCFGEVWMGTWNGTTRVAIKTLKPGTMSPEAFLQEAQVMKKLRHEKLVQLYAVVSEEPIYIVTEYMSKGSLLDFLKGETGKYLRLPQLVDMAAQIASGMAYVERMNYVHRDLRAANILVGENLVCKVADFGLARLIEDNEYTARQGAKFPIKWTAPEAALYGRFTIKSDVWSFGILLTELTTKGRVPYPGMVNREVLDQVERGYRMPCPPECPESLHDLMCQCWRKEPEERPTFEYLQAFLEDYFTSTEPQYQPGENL
structure (smiles),measurement,setting,value
"O=c1cc(N2CCOCC2)oc2c(-c3ccccc3)cccc12 [LY294002, 2-(4-morpholinyl)-8-phenyl-4H-1-benzopyran-4-one, reference compound]",effect on fluorescence intensity from Akt phosphorylation induced by RLip-EA-OH,Akt [1],diminished the fluorescence intensity
same,effect on RLip-EA-OH-increased phosphorylation of Akt,"Akt [2]; cotreatment with 5 μM LY294002, 3 hours",completely inhibited
"O=C(O)CCCC[C@@H]1CCSS1 [RLip-OH, (R)-lipoic acid, reference compound]",ORAC Value relative to RLip-OH,[3]; mean of 3-4 experiments,100 ± 6
same,effect on carbachol stimulated flux in cytosolic calcium,CHO M1-WT3 cells,minimal effect
same,Reduction of MI:AR Ratio Relative to Vehicle (%),"[4]; 2 mg/kg IC, Table 7 meta analysis",19 ± 7 %
same,Src % Increase in activity above vehicle control,Src; 300 μM,15 ± 1%
same,IGF1R % Increase in activity above vehicle control,IGF1R; 300 μM,37 ± 4%
same,increase in phosphorylated Akt at serine 473,Akt [2]; 45 minutes of treatment,2 fold
same,amount of phosphorylated Akt relative to total Akt,Akt [2]; variant concentrations,increased the amount of phosphorylated Akt relative to total Akt in a dose dependent manner
same,IRK % Increase in activity above vehicle control,insulin receptor kinase; 300 μM,48 ± 1%
"C[C@H](NC(=O)[C@H](CCC(=O)O)NC(=O)CCCC[C@H]1CCSS1)C(=O)O [SLip-EA-OH, N-(S)-lipoyl-L-glutamyl-L- alanine]",ORAC Value relative to RLip-EA-OH,[3]; mean of 3-4 experiments,89 ± 4
same,MI/AR,[4]; 1 mg/kg single bolus IC 15 minutes prior to ischemia,0.401
same,MI/AR,[4]; 2 mg/kg single bolus IC 15 minutes prior to ischemia,0.400
same,Src % activity above control (±SEM),Src; 100 μM,19 ± 1%
same,IGF1R % activity above control (±SEM),IGF1R; 100 μM,−4 ± 10%
same,AVG % activity above control (±SEM),insulin receptor kinase; 100 μM,4 ± 12%
"CC(=O)N[C@@H](CCC(=O)O)C(=O)N[C@@H](C)C(=O)O [Ac-EA-OH, N-acetyl-L-glutamyl-L- alanine, reference compound] (Ac-Glu-Ala-OH)",peroxyl radical absorption capability,[3]; ORAC assay,no appreciable peroxyl radical absorption capability
same,ORAC Value relative to RLip-OH,[3]; mean of 3-4 experiments,8 ± 5
same,effect on carbachol stimulated flux in cytosolic calcium,CHO M1-WT3 cells,minimal effect
same,efficacy compared to vehicle,[5],statistically similar to vehicle
